The target in one assay is rat SUR2A (Rattus norvegicus, UniProt Q63563). Kind of assay: In vitro binding affinity to rodent KATP channels: SUR2A ([3H]P1075 / [3H]glibenclamide displacement, COS cell membranes). The protocol:
Therefore, two strategies can be used to detect binding to the sulfonylurea site on SUR2A.
Membranes from COS-cells transiently expressing rat SUR2A were incubated in the presence of the radioligands with increasing concentrations of test compounds as described above. […] For each test compound four displacement curves were measured (displacement of [^3H]P1075 from the rat isoform of the wild type receptor and displacement of [^3H]glibenclamide from the rat isoform of SUR2AY1205S). Per curve 9-15 distinct concentrations were tested covering the relevant range. All measurements were repeated at least 5 times in independent experiments.
(§1) [^3H]glibenclamide (specific activity 51 Ci mmol^−1) was obtained from NEN (Dreieich, Germany). Where needed, stock solutions were prepared in dimethylsulfoxide with a final solvent concentration in the media below 1%.
(§2) SUR- or Kir6.x isoforms were used either subcloned in the pcDNA (hamster SUR1, mouse Kir6.2) or pCMV vector (rat SUR2A, SUR2B).
(§3) For transfection, the cells were incubated 4 hours in a Tris-buffered salt solution containing DNA (5-10 μg/ml) plus DEAE-dextran (1 mg/ml), 2 min in HEPES-buffered salt solution plus dimethylsulfoxide (10%) and 4 hours in DMEM-HG plus chloroquine (100 μM). Cells were then returned to DMEM-HG plus 10% FCS. […] For binding experiments, resuspended membranes (final protein concentration 5-50 μg/ml) were incubated in “Tris-buffer” (50 mM, pH 7.4) containing either [^3H]glibenclamide (final concentration 0.3 nM or 3 nM and nonspecific binding defined by 100 nM or 1 μM glibenclamide for SUR1 or SUR2Y1205S-isoforms, respectively) or [^3H]P1075 (final concentration 3 nM, nonspecific binding defined by 100 μM pinacidil) and increasing concentrations of the test compounds. The free Mg^2+ concentration were kept close to 0.7 mM. […] Incubations were carried out for 1 h at room temperature and were terminated by rapid filtration through Whatman GF/B filters.
(§4) The inhibition constant (Ki value) of the test substances was calculated from the respective IC50 value, and was stated as the negative logarithmic value thereof (pKi).

The next assay concerns the target T1, hamster SUR1 (Cricetus cricetus, UniProt Q09427).
T1 construct: expressed in transfected cells; host or cells: COS-1 cells, transient (pcDNA vector)
The assay is described as follows: In vitro binding affinity to rodent KATP channels: SUR1 ([3H]glibenclamide displacement, COS cell membranes). Here is the method: 1. In Vitro Binding Affinity of the Test Compounds to Rodent KATP Channels
Competitive binding experiments were performed to characterize the affinity of the test compounds for the binding sites for sulfonylureas and KATP channel openers (KCOS) on hamster SUR1. To assess the affinity for the sulfonylurea site, membranes from COS-cells transiently expressing hamster SUR1 were incubated in the presence of [^3H]glibenclamide with increasing concentrations of test compounds. […] For each test compound four displacement curves were measured (+/−MgATP from the human and hamster isoform). Per curve 9-15 distinct concentrations were tested covering the relevant range. All measurements were repeated at least 5 times in independent experiments.
as §1, §2, §3, §4

Setting [1] is: hamster SUR1 in COS cell membranes, read-out: Affinity to SUR 1 (converted).
Setting [2] is: rat SUR2A in COS cell membranes.

Read-outs that look alike come from different tables or passages of the source.

rat SUR2A, sequence (Q63563 whole entry): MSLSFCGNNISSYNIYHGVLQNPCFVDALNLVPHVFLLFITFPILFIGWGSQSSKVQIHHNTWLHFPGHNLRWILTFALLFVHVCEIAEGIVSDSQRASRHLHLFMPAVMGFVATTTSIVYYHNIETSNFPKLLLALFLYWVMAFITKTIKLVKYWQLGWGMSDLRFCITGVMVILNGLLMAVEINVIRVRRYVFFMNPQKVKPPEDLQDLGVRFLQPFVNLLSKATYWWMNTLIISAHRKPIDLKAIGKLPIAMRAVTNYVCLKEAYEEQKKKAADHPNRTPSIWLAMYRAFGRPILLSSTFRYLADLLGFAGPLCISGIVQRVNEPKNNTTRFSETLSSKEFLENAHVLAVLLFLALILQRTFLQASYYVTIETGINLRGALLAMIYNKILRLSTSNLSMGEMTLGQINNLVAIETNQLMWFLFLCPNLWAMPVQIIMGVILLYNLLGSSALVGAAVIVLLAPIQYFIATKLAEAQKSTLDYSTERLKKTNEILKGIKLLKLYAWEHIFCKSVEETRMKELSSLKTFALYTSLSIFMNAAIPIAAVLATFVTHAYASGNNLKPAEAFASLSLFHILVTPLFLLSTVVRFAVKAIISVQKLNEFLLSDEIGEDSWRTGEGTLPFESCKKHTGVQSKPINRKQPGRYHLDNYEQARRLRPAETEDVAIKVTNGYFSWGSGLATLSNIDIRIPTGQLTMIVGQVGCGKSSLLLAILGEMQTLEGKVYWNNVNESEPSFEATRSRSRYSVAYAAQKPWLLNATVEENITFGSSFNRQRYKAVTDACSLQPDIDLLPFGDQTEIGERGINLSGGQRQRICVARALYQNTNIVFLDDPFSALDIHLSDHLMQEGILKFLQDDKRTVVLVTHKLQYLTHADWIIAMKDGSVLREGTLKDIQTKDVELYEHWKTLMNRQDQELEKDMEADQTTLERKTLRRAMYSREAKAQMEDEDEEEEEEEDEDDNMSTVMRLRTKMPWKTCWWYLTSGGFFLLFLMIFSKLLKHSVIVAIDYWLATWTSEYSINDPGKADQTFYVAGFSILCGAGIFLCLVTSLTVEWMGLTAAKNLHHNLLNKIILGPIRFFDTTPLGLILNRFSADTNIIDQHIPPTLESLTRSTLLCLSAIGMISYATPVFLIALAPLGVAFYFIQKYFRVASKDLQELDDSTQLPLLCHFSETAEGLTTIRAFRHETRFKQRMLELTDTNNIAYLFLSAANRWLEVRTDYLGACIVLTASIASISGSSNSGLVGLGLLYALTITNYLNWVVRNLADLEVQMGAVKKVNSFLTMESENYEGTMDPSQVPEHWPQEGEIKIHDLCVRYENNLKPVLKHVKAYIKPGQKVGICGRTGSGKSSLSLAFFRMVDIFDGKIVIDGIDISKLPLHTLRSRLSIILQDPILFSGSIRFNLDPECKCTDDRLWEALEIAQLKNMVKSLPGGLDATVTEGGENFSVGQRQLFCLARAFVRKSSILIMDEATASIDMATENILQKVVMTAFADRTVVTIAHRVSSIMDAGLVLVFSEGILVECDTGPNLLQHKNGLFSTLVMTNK
T1 sequence (Q09427 whole entry): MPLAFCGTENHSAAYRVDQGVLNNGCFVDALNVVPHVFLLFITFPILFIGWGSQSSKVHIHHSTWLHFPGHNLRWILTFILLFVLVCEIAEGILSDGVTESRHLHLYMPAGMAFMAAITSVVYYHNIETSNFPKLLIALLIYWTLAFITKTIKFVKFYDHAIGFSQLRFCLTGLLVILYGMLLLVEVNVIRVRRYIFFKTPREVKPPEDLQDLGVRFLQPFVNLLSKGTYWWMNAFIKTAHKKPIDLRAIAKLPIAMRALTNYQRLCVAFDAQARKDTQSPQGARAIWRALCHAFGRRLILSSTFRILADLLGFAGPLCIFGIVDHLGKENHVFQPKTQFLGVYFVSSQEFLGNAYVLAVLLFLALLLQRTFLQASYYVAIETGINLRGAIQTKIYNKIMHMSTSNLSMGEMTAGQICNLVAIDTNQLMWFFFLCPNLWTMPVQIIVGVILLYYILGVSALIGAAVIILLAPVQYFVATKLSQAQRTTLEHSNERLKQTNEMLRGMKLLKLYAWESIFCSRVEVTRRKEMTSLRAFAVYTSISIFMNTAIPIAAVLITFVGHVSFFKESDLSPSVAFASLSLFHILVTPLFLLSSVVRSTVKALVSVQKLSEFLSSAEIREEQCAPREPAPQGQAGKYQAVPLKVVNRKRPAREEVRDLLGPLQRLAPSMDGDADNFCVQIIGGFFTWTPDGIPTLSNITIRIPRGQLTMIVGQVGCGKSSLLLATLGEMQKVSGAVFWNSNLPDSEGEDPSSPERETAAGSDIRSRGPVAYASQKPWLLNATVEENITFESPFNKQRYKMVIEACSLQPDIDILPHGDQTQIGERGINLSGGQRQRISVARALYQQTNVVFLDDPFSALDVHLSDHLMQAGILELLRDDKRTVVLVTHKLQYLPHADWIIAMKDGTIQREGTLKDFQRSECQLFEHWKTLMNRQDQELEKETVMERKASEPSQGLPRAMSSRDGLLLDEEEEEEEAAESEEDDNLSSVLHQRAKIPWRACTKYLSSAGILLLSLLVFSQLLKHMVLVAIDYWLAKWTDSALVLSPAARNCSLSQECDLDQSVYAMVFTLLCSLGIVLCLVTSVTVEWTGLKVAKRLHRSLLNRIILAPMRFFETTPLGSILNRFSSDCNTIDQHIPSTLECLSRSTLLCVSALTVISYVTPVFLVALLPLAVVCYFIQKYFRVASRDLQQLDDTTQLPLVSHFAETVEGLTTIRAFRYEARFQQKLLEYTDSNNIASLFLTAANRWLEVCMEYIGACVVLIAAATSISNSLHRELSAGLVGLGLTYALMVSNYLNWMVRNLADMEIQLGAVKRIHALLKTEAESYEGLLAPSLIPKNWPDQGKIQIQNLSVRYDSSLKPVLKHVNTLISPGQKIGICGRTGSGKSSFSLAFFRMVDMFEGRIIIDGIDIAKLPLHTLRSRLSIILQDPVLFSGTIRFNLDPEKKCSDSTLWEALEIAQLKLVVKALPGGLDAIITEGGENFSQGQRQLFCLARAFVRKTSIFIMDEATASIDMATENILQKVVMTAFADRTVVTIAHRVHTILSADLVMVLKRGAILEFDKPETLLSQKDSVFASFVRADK

In the case of `CNC(=NS(=O)(=O)c1ccc(Cl)cc1)N1CC(c2cccnc2)C(c2ccc(Cl)cc2)=N1` (centres unmarked), on rat SUR2A, the pKi (commonly the negative decadic logarithm of the Ki, by convention in mol/L) turned out to be 5.4. In addition, the Ki on hamster SUR1 (setting [1]) is 2.51 µM.

Compound `Cn1c(C(=O)NC2CCCCC2)nc(-c2ccc(Cl)cc2Cl)c1-c1ccc(Cl)cc1` displayed a negative logarithm of the Ki (pKi) at rat SUR2A (setting [2]) of 4.9. In addition, the Ki on hamster SUR1 (setting [1]) was 100 µM. In the case of `O=S(=O)(N=C(NCC1CCNCC1)N1CC(c2ccccc2)C(c2ccc(Cl)cc2)=N1)c1ccc(Cl)cc1` (centres unmarked), the pKi at rat SUR2A is listed as 4.9. In addition, the Ki at hamster SUR1 (setting [1]) was 0.631 µM. `O=S(=O)(N=C(NCC1CC1)N1CC(c2ccccc2)C(c2ccc(Cl)cc2)=N1)N1CCOCC1` (centres unmarked) had a pKi on rat SUR2A of 5.7. Moreover, the Ki at hamster SUR1 (setting [1]) was 1 µM. Regarding `CCCCCCC(C)(C)c1ccc([C@@H]2C[C@H](O)CC[C@@H]2CCCO)c(O)c1` (stereo in doubt) [CP55940-entantiomer, 5-(1,1-Dimethyl-heptyl)-2-[5-hydroxy-2-(3-hydroxy-propyl)-cyclohexyl]-phenol, reference compound], the Ki at hamster SUR1 (setting [1]) is 5.01 µM. As to `CCCCCCC(C)(C)c1cc(OC)c(C2C=C(CO)[C@H]3C[C@@H]2C3(C)C)c(OC)c1` (stereo in doubt) [HU308, {4-[4-(1,1-Dimethyl-heptyl)-2,6-dimethoxy-phenyl]-6,6-dimethyl-bicyclo[3.1.1]hept-2-en-2-yl}-methanol, reference compound], at hamster SUR1, the Ki is 0.398 µM. Compound `CCc1c(C(=O)NN2CCCCC2)nc(-c2ccc(Cl)cc2Cl)n1-c1ccc(Br)cc1` [1-(4-Bromo-phenyl)-2-(2,4-dichloro-phenyl)-5-ethyl-1H-imidazol-4-carboxylic acid piperidin-1-ylamide] yielded a pKi on rat SUR2A of 5.3. The Ki at hamster SUR1 (setting [1]) is 3.98 µM.

Regarding `CCCCCNC(=O)c1nc(-c2ccc(Cl)cc2Cl)n(-c2ccc(Br)cc2)c1CC` [1-(4-Bromo-phenyl)-2-(2,4-dichloro-phenyl)-5-ethyl-1H-imidazole-4-carboxylic acid pentylamide], on rat SUR2A (setting [2]), the pKi was 5.6. Also, the Ki at hamster SUR1 (setting [1]) was 0.794 µM. For `O=C(NN1CCCCC1)c1nc(-c2ccc(Cl)cc2Cl)n(-c2ccc(Br)cc2)c1Cl` [1-(4-Bromo-phenyl)-5-chloro-2-(2,4-dichloro-phenyl)-1H-imidazole-4-carboxylic acid piperidin-1-ylamide], the pKi on rat SUR2A was determined as 5.5. Moreover, the Ki on hamster SUR1 (setting [1]) was 3.98 µM. For `O=C(NN1CCCCC1)c1nc(-c2ccc(Cl)cc2Cl)n(-c2ccc(Cl)cc2)c1CC(F)(F)F` [1-(4-Chloro-phenyl)-2-(2,4-dichloro-phenyl)-5-(2,2,2-trifluoro-ethyl)-1H-imidazole-4-carboxylic acid piperidin-1-ylamide], in that order: 5.7 and 15.8 µM. Take `CCSc1c(C(=O)NN2CCCCC2)nc(-c2ccc(Cl)cc2Cl)n1-c1ccc(Cl)cc1` [1-(4-Chloro-phenyl)-2-(2,4-dichloro-phenyl)-5-ethylsulfanyl-1H-imidazole-4-carboxylic acid piperidin-1-ylamide]: the pKi at rat SUR2A stood at 5.3. In addition, the Ki at hamster SUR1 (setting [1]) was 7.94 µM. At rat SUR2A (setting [2]), `C[S+]([O-])c1c(C(=O)NN2CCCCC2)nc(-c2ccc(Cl)cc2Cl)n1-c1ccc(Cl)cc1` (centres unmarked) [1-(4-Chloro-phenyl)-2-(2,4-dichloro-phenyl)-5-methanesulfinyl-1H-imidazole-4-carboxylic acid piperidin-1-ylamide] had a negative-log Ki (pKi) of 4.9. On hamster SUR1 (setting [1]), the Ki was 100 µM. In the case of `CS(=O)(=O)c1c(C(=O)NN2CCCCC2)nc(-c2ccc(Cl)cc2Cl)n1-c1ccc(Cl)cc1` [1-(4-Chloro-phenyl)-2-(2,4-dichloro-phenyl)-5-methanesulfonyl-1H-imidazole-4-carboxylic acid piperidin-1-ylamide], the pKi on rat SUR2A is given as 5.0. At hamster SUR1 (setting [1]), the Ki is 100 µM. Turning to `Cc1c(C(=O)NC2CCC(O)CC2)nc(-c2ccc(Cl)cc2Cl)n1-c1ccc(Cl)cc1` (centres unmarked) [1-(4-Chloro-phenyl)-2-(2,4-dichloro-phenyl)-5-methyl-1H-imidazole-4-carboxylic acid (4-hydroxy-cyclo-hexyl)-amide], on rat SUR2A, the pKi came to 5.0. The Ki at hamster SUR1 (setting [1]) was 100 µM.

`CCCCCc1nc(-c2ccc(Cl)cc2Cl)n(-c2ccc(Cl)cc2)c1C` [1-(4-Chloro-phenyl)-2-(2,4-dichloro-phenyl)-5-methyl-4-pentyl-1H-imidazole]: the pKi on rat SUR2A (setting [2]) came out at 5.3. The Ki on hamster SUR1 (setting [1]) was 1.58 µM. Consider `O=C(NN1CCCCC1)c1nc(-c2ccc(Cl)cc2Cl)n(-c2ccc(Cl)cc2)c1CN1CCCC1` [1-(4-Chloro-phenyl)-2-(2,4-dichloro-phenyl)-5-pyrrolidin-1-ylmethyl-1H-imidazole-4-carboxylic acid piperidin-1-ylamide], for which the pKi on rat SUR2A (setting [2]) worked out at 4.6. For the same compound, the Ki on hamster SUR1 (setting [1]) is 100 µM. In the case of `O=C(NN1CCCCC1)c1nc(-c2ccc(Cl)cc2Cl)n(-c2ccc(Cl)cc2)n1` [1-(4-Chloro-phenyl)-5-(2,4-dichloro-phenyl)-1H-[1,2,4]triazole-3-carboxylic acid piperidin-1-yl-amide], at rat SUR2A, the negative logarithm of the Ki (pKi) is given as 5.0. Also, the Ki on hamster SUR1 (setting [1]) is 10 µM. As to `O=C(NN1CCCCC1)C1=NN(c2ccc(Cl)cc2)C(c2ccccc2)C1` (centres unmarked) [1-(4-Chloro-phenyl)-5-phenyl-4,5-dihydro-1H-pyrazole-3-carboxylic acid piperidin-1-ylamide], the pKi on rat SUR2A was 5.1. Besides, the Ki at hamster SUR1 (setting [1]) is 100 µM. For the compound `CN1CCCC1CN/C(=N\S(=O)(=O)c1ccc(Cl)cc1)N1CC(c2ccccc2)C(c2ccc(Cl)cc2)=N1` (centres unmarked) [4-Chloro-N-{[3-(4-chloro-phenyl)-4-phenyl-4,5-dihydro-pyrazol-1-yl]-[(1-methyl-pyrrolidin-2-ylmethyl)-amino]-methylene}-benzenesulfonamide], at rat SUR2A, the negative-log Ki (pKi) is 5.1. For `CN/C(=N\S(=O)(=O)c1ccc(Cl)cc1)N1C[C@@H](c2ccccc2)C(c2ccc(Cl)cc2)=N1` [4-Chloro-N-{[3-(4-chloro-phenyl)-4-phenyl-4,5-dihydro-pyrazol-1-yl]-methylamino-methylene}-benzenesulfonamide], the Ki on hamster SUR1 (setting [1]) was 1 µM. On to `CCCCCCC(C)(C)c1cc(O)c2c(c1)OC(C)(C)[C@@H]1CC=C(CO)CC21` (some centres unmarked) [HU-210, 3-(1,1-Dimethyl-heptyl)-9-hydroxymethyl-6,6-dimethyl-6a,7,10,10a-tetra hydro-6H-enzo[c]chromen-1-ol, reference compound], for which, on hamster SUR1 (setting [1]), the Ki is 0.794 µM. On to `CCCCCOc1c(OC)ccc2cc(C(=O)NCc3ccc4c(c3)OCO4)c(=O)[nH]c12` [JTE-907, 7-Methoxy-2-oxo-8-pentyloxy-1,2-di-hydro-quinoline-3-carboxylic acid (benzo[1,3]dioxol-5-ylmethyl)-amide, reference compound], for which the Ki at hamster SUR1 (setting [1]) was 0.794 µM. Same read-out and setting: the value for `Cc1c(NC(=O)c2ccccc2)nc(-c2ccc(Cl)cc2Cl)n1-c1ccc(Cl)cc1` [N-[1-(4-Chloro-phenyl)-2-(2,4-dichloro-phenyl)-5-methyl-1H-imidazol-4-yl]-benzamide] was 2 µM. Still for that read-out and setting: the value for `CNC(=NS(=O)(=O)N1CCCCC1)N1C[C@H](c2ccccc2)C(c2ccc(Cl)cc2)=N1` [Piperidine-1-sulfonic acid [3-(4-chloro-phenyl)-4-phenyl-4,5-dihydro-pyrazol-1-yl]-methylamino-methyleneamide] was 1.58 µM; that for `Cc1ccc(Cn2nc(C(=O)N[C@@H]3C(C)(C)[C@@H]4CC[C@@]3(C)C4)cc2-c2ccc(Cl)c(C)c2)cc1` [SR 144528, reference compound] was 0.126 µM.

The record behind these values is patent publication US20070254863A1 (priority 2006, published 2007).
